Laboratory results: patent US4065575A, “3-Aminomethyl derivatives of 4-chromanone” (Joullie International, priority 1975, dated 1977)
“Also recorded” adds a separate entry of the source. Counter-ions that a name gives are not always drawn.

Legend:
[1] = system: isolated auricle of a rabbit; test: Peripheral vasomotoricity, isolated and perfused auricle of a rabbit; conditions: for activation at 0.0001 mg / activation at 0.001 mg / activation at 0.01 mg / activation at 0.1 mg: Oryctolagus cuniculus, read-out: Maximum variations in the flow rate; for activation at 0.0001 mg: dose 0.1 μg.; for activation at 0.001 mg: dose 1 μg.; for activation at 0.01 mg: dose 10 μg.; for activation at 0.1 mg: dose 100 μg.
Description: The flow rate of the liquid issuing from the veins is recorded by electronic contact on a polygraph. The products to be studied are injected at increasing doses into the perfusion tube and their actions are compared to that of isoxsuprine used as the reference substance.
The results, collected in Table No. III, are expressed in the maximum percentage increase of the flow rate at the various doses used.

[2] = Cardiovascular action in dogs; assay type: in vivo, male Beagle dogs
Description: Male Beagle dogs weighing 9 to 12 kg. were anaesthetised by intrasaphenous injection of a 2% solution of chloralose in physiological solution, at a dose of 100 mg./kg.
The anaesthesia is maintained by slow perfusion of 5% pentobarbital (1.2 ml./hour).
The animals are tracheotomised and placed under assisted respiration by means of a Bird respirator. Their oxygenation and their acid-base equilibrium are controlled by determination of the pH, the pCO2 and the pO2 on blood samples taken from a collateral of the brachial artery (pH/gas analyser for blood, IL model 213/227).
The different parameters are recorded on a polygraph.

[3] = system: hypertensive effects of electrical stimulation, adrenaline and noradrenaline; test: α-Sympatholytic effects in amyeliated rats; assay type: in vivo; conditions: for % variation of the hypertensive effects obtained with adrenaline: adrenaline 1.25 to 2.5 μg./kg.; for % variation of the hypertensive effects obtained with noradrenaline: noradrenaline 1.25 to 2.5 μg./kg.
Excerpt: The α-sympatholytic effects of LJ 1052 and LJ 1053 are compared with those of isoxsuprine in amyeliated rats which have been prepared by a method derived from those of Shipley and Tilden (Proc. soc. Exp. Biol. Med. 1947, 64, 453-455) and of Gillespie and Muir (Br. J. Pharmac. Chemother. 1967, 30, 78-87).
The effects on the blood pressure of electrical stimulation of the thoracolumbar sympathic nerve (rectangular signals = voltage 20 to 40 volts; width 2 m. sec; frequency 10 secs.; duration 5 to 10 secs.) and of injections of adrenaline (1.25 to 2.5 μg./kg.) and of noradrenaline (1.25 to 2.5 μg./kg.) are determined before and after injection of the products tested.

mice = test: Acute toxicity in mice (LD 50); assay type: in vivo; conditions: intravenous; in words
Description: (§1) The study is carried out on batches of 5 Swiss female mice of the NMRI Han. strain. The products are administered either intravenously (into the caudal vein) in solution in a 9 g..permill. sodium chloride solution, or orally (probang) in suspension in a 10% solution of gum arabic.
(§2) The animals are observed for the 15 days following the administration of the products.
(§3) The LD 50 values are calculated by the method of Karber and Behrens (Arch. Exp. Pathol. Pharm. 177, 1935, page 379).

[4] = system: isolated duodenum of a rat; test: Musculotropic spasmolytic action on the isolated duodenum of a rat (barium chloride contraction); conditions: in words
Description: The experiments are carried out in accordance with the method of Magnus R. (Arch. ges. Physiol. 1904, 102, 123) on the isolated duodenum of a rat, surviving in oxygenated Tyrode liquid and kept at 38° C. The tonus and the pendular movements of the duodenum were recorded by means of a strain gauge on an electronic polygraph.
The inherent action of the products, and the antagonism exerted against the musculotropic contraction-inducing action of barium chloride was examined. Papaverine is used as the reference substance.

[5] = Acute toxicity in mice (LD 50); assay type: in vivo; conditions: mouse, in vivo, mice, 15 days observation
Description: as §1, §2, §3

[6] = 0.04 mg./kg. i.v. (1/1,000 LD 50)
[7] = 0.04 mg./kg. i.v. (1/1,000 LD 50), first or only phase
[8] = dose 50 g./kg. (so in the source)
[9] = dose 100 g./kg. (so in the source)
[10] = dose 500 g./kg. (so in the source)

CC(COc1ccccc1)NC(C)C(O)c1ccc(O)cc1 (centres unmarked) [Isoxsuprine, reference compound]
activation at 0.0001 mg [1]: 38% | activation at 0.001 mg [1]: 61% | activation at 0.01 mg [1]: 117% | activation at 0.1 mg [1]: 175% | Diastolic AP, duration of action [2, 6]: 20 min | Diastolic AP, maximum per cent variation [2, 6]: -62% | FF (mean flow rate of the femoral artery), maximum per cent variation [2, 6]: +63% | FF, duration of action [2, 6]: 30 min | Hb (heart beat), maximum per cent variation [2, 6]: +13% | Hb, duration of action [2, 6]: 25 min | LVP, duration of action [2, 6]: 5 min | Mean AP, duration of action [2, 6]: 20 min | Mean AP, maximum per cent variation [2, 6]: -50% | Systolic AP, duration of action [2, 6]: 10 min | Systolic AP, maximum per cent variation [2, 6]: +13% | LVP (left ventricular pressure), maximum per cent variation [2, 7]: -22% | dLVP/dt, maximum per cent variation [2, 7]: -18% | dLVP/dt, duration of action, second phase ("then") [2, 6]: 5 min | dLVP/dt, maximum per cent variation, second phase ("then") [2, 6]: +12% | % variation of the hypertensive effects obtained with electrical stimulation [3, 8]: -27% | % variation of the hypertensive effects obtained with adrenaline [3, 8]: -69% | % variation of the hypertensive effects obtained with noradrenaline [3, 8]: -36% | % variation of the hypertensive effects obtained with electrical stimulation [3, 9]: -25% | % variation of the hypertensive effects obtained with adrenaline [3, 9]: -75% | % variation of the hypertensive effects obtained with noradrenaline [3, 9]: -44% | % variation of the hypertensive effects obtained with electrical stimulation [3, 10]: -66% | % variation of the hypertensive effects obtained with adrenaline [3, 10]: -100% | % variation of the hypertensive effects obtained with noradrenaline [3, 10]: -67% | intravenous LD 50 in mice (comparison of three products) (mice): practically identical

CCCCCNCC1COc2ccccc2C1=O (centres unmarked) [LJ 1046, 3-(n-Pentylaminomethyl)-4-chromanone hydrochloride]
activation at 0.0001 mg [1]: 38% | activation at 0.001 mg [1]: 29% | activation at 0.01 mg [1]: 61% | activation at 0.1 mg [1]: 77% | maximum increases in the flow rate ([1]; all doses (0.1 to 100 μg.)): ≤ 100% | FF (mean flow rate of the femoral artery), maximum per cent variation ([2]; 0.36 mg./kg. i.v. (1/50 LD 50)): +100% | FF, duration of action ([2]; 0.36 mg./kg. i.v. (1/50 LD 50)): > 20 min | Hb (heart beat), maximum per cent variation ([2]; 0.36 mg./kg. i.v. (1/50 LD 50)): +30% | Hb, duration of action ([2]; 0.36 mg./kg. i.v. (1/50 LD 50)): > 20 min | LVP (left ventricular pressure), maximum per cent variation ([2]; 0.36 mg./kg. i.v. (1/50 LD 50)): -20% | LVP, duration of action ([2]; 0.36 mg./kg. i.v. (1/50 LD 50)): > 20 min | Mean AP, duration of action ([2]; 0.36 mg./kg. i.v. (1/50 LD 50)): > 20 min | Mean AP, maximum per cent variation ([2]; 0.36 mg./kg. i.v. (1/50 LD 50)): -36% | dLVP/dt, duration of action ([2]; 0.36 mg./kg. i.v. (1/50 LD 50)): > 20 min | dLVP/dt, maximum per cent variation ([2]; 0.36 mg./kg. i.v. (1/50 LD 50)): +43% | musculotropic spasmolytic action compared with papaverine / within the series [4]: the most active | LD50 at 360 h ([5]; intravenous administration): 18 mg/kg | LD50 at 360 h ([5]; oral administration): 237 mg/kg

COCCCCNCC1COc2ccccc2C1=O (centres unmarked) [LJ 1053, 3-(4-Methoxy-n-butylaminomethyl)-4-chromanone hydrochloride]
activation at 0.0001 mg [1]: 23% | activation at 0.001 mg [1]: 92% | activation at 0.01 mg [1]: 133% | activation at 0.1 mg [1]: 183% | duration of the effects / of the action ([1]; at the highest doses): ≥ 30 min | peripheral vasodilatory action ([1]; in words, hydrochloride): great; also recorded: as active as isoxsuprine | Diastolic AP, duration of action [2, 6]: 5 min | Diastolic AP, maximum per cent variation [2, 6]: -60% | FF (mean flow rate of the femoral artery), maximum per cent variation [2, 6]: +104% | FF, duration of action [2, 6]: 3 min | Hb (heart beat), maximum per cent variation [2, 6]: +23% | Hb, duration of action [2, 6]: > 30 min | LVP, duration of action [2, 6]: > 10 min | Mean AP, duration of action [2, 6]: 5 min | Mean AP, maximum per cent variation [2, 6]: -45% | Systolic AP, duration of action [2, 6]: 15 min | Systolic AP, maximum per cent variation [2, 6]: +23% | LVP (left ventricular pressure), maximum per cent variation [2, 7]: -17% | dLVP/dt, maximum per cent variation [2, 7]: -12% | dLVP/dt, duration of action, second phase ("then") [2, 6]: > 10 min | dLVP/dt, maximum per cent variation, second phase ("then") [2, 6]: +25% | % variation of the hypertensive effects obtained with electrical stimulation [3, 8]: -11% | % variation of the hypertensive effects obtained with adrenaline [3, 8]: -18% | % variation of the hypertensive effects obtained with noradrenaline [3, 8]: -12% | % variation of the hypertensive effects obtained with electrical stimulation [3, 9]: -55% | % variation of the hypertensive effects obtained with adrenaline [3, 9]: -47% | % variation of the hypertensive effects obtained with noradrenaline [3, 9]: -41% | LD50 at 360 h ([5]; intravenous administration): 38 mg/kg | LD50 at 360 h ([5]; oral administration): 285 mg/kg | intravenous LD 50 in mice (comparison of three products) (mice): practically identical
